Measured values: patent US20240174634A1, “Aldehyde Dehydrogenase Inhibitors and Their Therapeutic Use” (priority 2020, published 2024)

What follows are compounds tested against T1, ALDH1A3 (Homo sapiens, UniProt P47895) (assay: Primary biochemical assay, NAD(P)H-Glo Detection System). Settings: 30 min pre-incubation, propionaldehyde and NAD at Km.
T1 sequence (P47895 1-512): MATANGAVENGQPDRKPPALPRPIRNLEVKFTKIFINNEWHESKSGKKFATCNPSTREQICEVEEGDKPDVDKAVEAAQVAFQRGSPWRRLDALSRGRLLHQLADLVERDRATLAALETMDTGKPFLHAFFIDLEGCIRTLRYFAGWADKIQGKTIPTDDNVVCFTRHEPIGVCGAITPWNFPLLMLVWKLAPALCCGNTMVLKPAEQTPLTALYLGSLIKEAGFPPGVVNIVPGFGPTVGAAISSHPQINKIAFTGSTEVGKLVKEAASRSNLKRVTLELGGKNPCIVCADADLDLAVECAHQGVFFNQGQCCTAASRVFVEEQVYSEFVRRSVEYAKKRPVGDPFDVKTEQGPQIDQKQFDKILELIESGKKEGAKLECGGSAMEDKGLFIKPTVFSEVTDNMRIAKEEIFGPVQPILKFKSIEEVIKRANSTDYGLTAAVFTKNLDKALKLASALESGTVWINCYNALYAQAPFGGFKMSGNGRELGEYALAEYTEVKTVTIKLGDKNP
Set-up: His-tag; made in house; host or cells: E. coli Rosetta (DE3)
Summary of the method: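 Recombinant full-length His-tagged human enzymes expressed in E. coli were pre-incubated 30 min at room temperature with compound (10-point, 3-fold series; top 20 μM for ALDH1A3, 250 μM for ALDH1A1/1A2). Propionaldehyde and NAD were then added at Km; NADH was read by NAD(P)H-Glo luminescence. Buffer: Tris (pH 7.6 for 1A1/1A2, 9.0 for 1A3), 1 mM TCEP, 0.01% Tween-20.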
`O=C1CCc2cc(OCCN3CCC[C@@H]3c3cccc(F)c3)ccc2N1` [ALDHI-2007, 6-[2-[(2R)-2-(3-fluorophenyl)pyrrolidin-1-yl]ethoxy]-3,4-dihydro-1H-quinolin-2-one] was tested, and the IC50 was under 100 nM. In the case of `O=C1CSc2cc(OCCN3CCCC3c3cccc(F)c3)ccc2N1` (stereo not shown) [ALDHI-2008, 7-[2-[2-(3-fluorophenyl)pyrrolidin-1-yl]ethoxy]-4H-1,4-benzothiazin-3-one], the IC50 is reported as under 100 nM. Work on `O=C1COc2cc(OCCN3CCCC3c3cccc(F)c3)ccc2N1` (stereo not shown) [ALDHI-2009, 7-[2-[2-(3-fluorophenyl)pyrrolidin-1-yl]ethoxy]-4H-1,4-benzoxazin-3-one] yielded an IC50 of 100 to 1000 nM. Compound `Cc1ccc(C2CCCN2CCOc2ccc3c(c2)CCC(=O)N3)cc1` (stereo not shown) [ALDHI-2010, 6-[2-[2-(p-tolyl)pyrrolidin-1-yl]ethoxy]-3,4-dihydro-1H-quinolin-2-one] has an IC50 of under 100 nM. `Cc1cccc(C2CCCN2CCOc2ccc3c(c2)CCC(=O)N3)c1` (stereo not shown) [ALDHI-2011, 6-[2-[2-(m-tolyl)pyrrolidin-1-yl]ethoxy]-3,4-dihydro-1H-quinolin-2-one] showed an IC50 of 100 to 1000 nM. In the case of `Cc1ccccc1C1CCCN1CCOc1ccc2c(c1)CCC(=O)N2` (stereo not shown) [ALDHI-2012, 6-[2-[2-(o-tolyl)pyrrolidin-1-yl]ethoxy]-3,4-dihydro-1H-quinolin-2-one], the IC50 is reported as 100 to 1000 nM. `O=C1CCc2cc(OCCN3CCCC3c3cccs3)ccc2N1` (stereo not shown) [ALDHI-2013, 6-[2-[2-(2-thienyl)pyrrolidin-1-yl]ethoxy]-3,4-dihydro-1H-quinolin-2-one] was tested, and the IC50 was under 100 nM. Work on `O=C1CCc2cc(OCCN3CCCC3c3ccsc3)ccc2N1` (stereo not shown) [ALDHI-2014, 6-[2-[2-(3-thienyl)pyrrolidin-1-yl]ethoxy]-3,4-dihydro-1H-quinolin-2-one] yielded an IC50 of under 100 nM. For `CCn1cc(C2CCCN2CCOc2ccc3c(c2)CCC(=O)N3)cn1` (stereo not shown) [ALDHI-2016, 6-[2-[2-(1-ethylpyrazol-4-yl)pyrrolidin-1-yl]ethoxy]-3,4-dihydro-1H-quinolin-2-one], the IC50 was 100 to 1000 nM. `O=C1CCc2cc(OCCN3CCC[C@H]3c3cccc(F)c3)ccc2N1` [ALDHI-2018, 6-[2-[(2S)-2-(3-fluorophenyl)pyrrolidin-1-yl]ethoxy]-3,4-dihydro-1H-quinolin-2-one] was tested, and the IC50 was under 100 nM. `O=C1CCc2cc(OCCN3CCCC3c3ccccc3)ccc2N1` (stereo not shown) [ALDHI-2019, 6-[2-(2-phenylpyrrolidin-1-yl)ethoxy]-3,4-dihydro-1H-quinolin-2-one] gave an IC50 of 100 to 1000 nM. In the case of `O=C1CCCc2cc(OCCN3CCCC3c3cccc(F)c3)ccc2N1` (stereo not shown) [ALDHI-2020, 7-[2-[2-(3-fluorophenyl)pyrrolidin-1-yl]ethoxy]-1,3,4,5-tetrahydro-1-benzazepin-2-one], the IC50 is reported as under 100 nM. With `O=C1CCc2cc(OCCN3CCC3c3cccc(F)c3)ccc2N1` (stereo not shown) [ALDHI-2021, 6-[2-[2-(3-fluorophenyl)azetidin-1-yl]ethoxy]-3,4-dihydro-1H-quinolin-2-one] the IC50 was 100 to 1000 nM. With `O=c1ccc2cc(OCCN3CCCC3c3cccc(F)c3)ccc2[nH]1` (stereo not shown) [ALDHI-2022, 6-[2-[2-(3-fluorophenyl)pyrrolidin-1-yl]ethoxy]-1H-quinolin-2-one] the IC50 was under 100 nM. Compound `O=C1CCc2cc(OCCn3nccc3-c3cccc(F)c3)ccc2N1` [ALDHI-2023, 6-[2-[5-(3-fluorophenyl)pyrazol-1-yl]ethoxy]-3,4-dihydro-1H-quinolin-2-one] has an IC50 of under 100 nM. For `Cn1cc(C2CCCN2CCOc2ccc3c(c2)SCC(=O)N3)cn1` (stereo not shown) [ALDHI-2026, 7-[2-[2-(1-methylpyrazol-4-yl)pyrrolidin-1-yl]ethoxy]-4H-1,4-benzothiazin-3-one], the IC50 was 100 to 1000 nM. For `O=C1CSc2cc(OCCN3CCCC3c3ccccn3)ccc2N1` (stereo not shown) [ALDHI-2027, 7-[2-[2-(2-pyridyl)pyrrolidin-1-yl]ethoxy]-4H-1,4-benzothiazin-3-one], the IC50 was 100 to 1000 nM. In the case of `O=C1CSc2cc(OCCN3CCCC3c3cccnc3)ccc2N1` (stereo not shown) [ALDHI-2028, 7-[2-[2-(3-pyridyl)pyrrolidin-1-yl]ethoxy]-4H-1,4-benzothiazin-3-one], the IC50 is reported as under 100 nM. Compound `O=C1CSc2cc(OCCN3CCCC3c3ccncc3)ccc2N1` (stereo not shown) [ALDHI-2029, 7-[2-[2-(4-pyridyl)pyrrolidin-1-yl]ethoxy]-4H-1,4-benzothiazin-3-one] has an IC50 of 100 to 1000 nM. Compound `Cc1ccc(C2CCCN2CCOc2ccc3c(c2)CCC(=O)N3)cn1` (stereo not shown) [ALDHI-2030, 6-[2-[2-(6-methyl-3-pyridyl)pyrrolidin-1-yl]ethoxy]-3,4-dihydro-1H-quinolin-2-one] has an IC50 of 100 to 1000 nM. `O=C1CCc2cc(OCCN3CCOCC3c3cccc(F)c3)ccc2N1` (stereo not shown) [ALDHI-2031, 6-[2-[3-(3-fluorophenyl)morpholin-4-yl]ethoxy]-3,4-dihydro-1H-quinolin-2-one] showed an IC50 of under 100 nM. `O=C1CCc2cc(OCCN3CCCC3c3cc(F)cc(F)c3)ccc2N1` (stereo not shown) [ALDHI-2032, 6-[2-[2-(3,5-difluorophenyl)pyrrolidin-1-yl]ethoxy]-3,4-dihydro-1H-quinolin-2-one] showed an IC50 of under 100 nM. `Cc1nc(C2CCCN2CCOc2ccc3c(c2)CCC(=O)N3)cs1` (stereo not shown) [ALDHI-2033, 6-[2-[2-(2-methylthiazol-4-yl)pyrrolidin-1-yl]ethoxy]-3,4-dihydro-1H-quinolin-2-one] showed an IC50 of 100 to 1000 nM. `COc1cccc(C2CCCN2CCOc2ccc3c(c2)CCC(=O)N3)c1` (stereo not shown) [ALDHI-2034, 6-[2-[2-(3-methoxyphenyl)pyrrolidin-1-yl]ethoxy]-3,4-dihydro-1H-quinolin-2-one] showed an IC50 of 100 to 1000 nM. Work on `CC1(c2cccc(F)c2)CCCN1CCOc1ccc2c(c1)CCC(=O)N2` (stereo not shown) [ALDHI-2037, 6-[2-[2-(3-fluorophenyl)-2-methyl-pyrrolidin-1-yl]ethoxy]-3,4-dihydro-1H-quinolin-2-one] yielded an IC50 of under 100 nM. `O=C1CCc2cc(OCCN3CCCCC3c3cccc(F)c3)ccc2N1` (stereo not shown) [ALDHI-2038, 6-[2-[2-(3-fluorophenyl)-1-piperidyl]ethoxy]-3,4-dihydro-1H-quinolin-2-one] was tested, and the IC50 was under 100 nM. `O=C1CCc2cc(OCCN3CCCC3c3ccc(F)c(F)c3)ccc2N1` (stereo not shown) [ALDHI-2039, 6-[2-[2-(3,4-difluorophenyl)pyrrolidin-1-yl]ethoxy]-3,4-dihydro-1H-quinolin-2-one] showed an IC50 of under 100 nM. Compound `CC1(c2ccccc2)COCCN1CCOc1ccc2c(c1)CCC(=O)N2` (stereo not shown) [ALDHI-2040, 6-[2-(3-methyl-3-phenyl-morpholin-4-yl)ethoxy]-3,4-dihydro-1H-quinolin-2-one] has an IC50 of 100 to 1000 nM. Compound `O=C1CCc2cc(OCCn3ccnc3-c3ccccc3)ccc2N1` [ALDHI-2041, 6-[2-(2-phenylimidazol-1-yl)ethoxy]-3,4-dihydro-1H-quinolin-2-one] has an IC50 of 100 to 1000 nM. Work on `CC1(C)Oc2cc(OCCN3CCCC3c3cccc(F)c3)ccc2NC1=O` (stereo not shown) [ALDHI-2043, 7-[2-[2-(3-fluorophenyl)pyrrolidin-1-yl]ethoxy]-2,2-dimethyl-4H-1,4-benzoxazin-3-one] yielded an IC50 of 100 to 1000 nM. For `CC1Oc2cc(OCCN3CCCC3c3cccc(F)c3)ccc2NC1=O` (stereo not shown) [ALDHI-2044, 7-[2-[2-(3-fluorophenyl)pyrrolidin-1-yl]ethoxy]-2-methyl-4H-1,4-benzoxazin-3-one], the IC50 was under 100 nM. `CCC1Oc2cc(OCCN3CCCC3c3cccc(F)c3)ccc2NC1=O` (stereo not shown) [ALDHI-2045, 2-ethyl-7-[2-[2-(3-fluorophenyl)pyrrolidin-1-yl]ethoxy]-4H-1,4-benzoxazin-3-one] showed an IC50 of under 100 nM. `CC1Cc2cc(OCCN3CCCC3c3cccc(F)c3)ccc2NC1=O` (stereo not shown) [ALDHI-2048, 6-[2-[2-(3-fluorophenyl)pyrrolidin-1-yl]ethoxy]-3-methyl-3,4-dihydro-1H-quinolin-2-one] gave an IC50 of under 100 nM. With `O=C1CCc2cc(OCCN3CCCC3c3cccc(F)c3)c(F)cc2N1` (stereo not shown) [ALDHI-2050, 7-fluoro-6-[2-[2-(3-fluorophenyl)pyrrolidin-1-yl]ethoxy]-3,4-dihydro-1H-quinolin-2-one] the IC50 was under 100 nM. `O=C1CCc2cc(OCCN3C(=O)CCC3c3ccccc3)ccc2N1` (stereo not shown) [ALDHI-2051, 6-[2-(2-oxo-5-phenyl-pyrrolidin-1-yl)ethoxy]-3,4-dihydro-1H-quinolin-2-one] gave an IC50 of under 100 nM. In the case of `O=C1CCc2cc(OCCN3CC(F)CC3c3cccc(F)c3)ccc2N1` (stereo not shown) [ALDHI-2052, 6-[2-[4-fluoro-2-(3-fluorophenyl)pyrrolidin-1-yl]ethoxy]-3,4-dihydro-1H-quinolin-2-one], the IC50 is reported as under 100 nM. With `O=C1CCc2cc(OCCN3CC(F)(F)CC3c3cccc(F)c3)ccc2N1` (stereo not shown) [ALDHI-2053, 6-[2-[4,4-difluoro-2-(3-fluorophenyl)pyrrolidin-1-yl]ethoxy]-3,4-dihydro-1H-quinolin-2-one] the IC50 was under 100 nM. With `CN(CCOc1ccc2c(c1)CCC(=O)N2)Cc1cccc(F)c1` [ALDHI-3001, 6-[2-[(3-fluorophenyl)methyl-methyl-amino]ethoxy]-3,4-dihydro-1H-quinolin-2-one] the IC50 was 100 to 1000 nM. For `O=C1CCc2cc(OCCN(CCO)Cc3cccc(F)c3)ccc2N1` [ALDHI-3002, 6-[2-[(3-fluorophenyl)methyl-(2-hydroxyethyl)amino]ethoxy]-3,4-dihydro-1H-quinolin-2-one], the IC50 was under 100 nM. With `CN(CCOc1ccc2c(c1)CCC(=O)N2)C(CO)c1cccc(F)c1` (stereo not shown) [ALDHI-3003, 6-[2-[[1-(3-fluorophenyl)-2-hydroxy-ethyl]-methyl-amino]ethoxy]-3,4-dihydro-1H-quinolin-2-one] the IC50 was 100 to 1000 nM.
